What was measured:
Format in all cases: cell-based, human
SMAD4 = experiment: RT-qPCR of SMAD4 mRNA in olfactory neurospheres treated with SB, LDN and TRIM; conditions: ONS cells
Experimental: Primary olfactory cells were dissociated into single cells and seeded onto Poly L-Lysine (Sigma) coated tissue culture dishes at 20,000 cells/cm^2 in sphering media, which consists of DMEM+1×ITS+[…]. Cells were then incubated at 37° C. with 5% CO2 until neurospheres started to form. This normally takes 2-3 days. Small neurospheres (<200 μm in diameter) were manually picked under a dissecting microscope (Leica) and collected for differentiation.
For olfactory neurosphere differentiation experiments, cells were cultured in ONS differentiation media, which consists of neural basal media+1×B27+1×L-glutamine+pen/strep+1×β-mercaptoethanol+AA+BDNF supplemented with combinations of SB, LDN and TRIM. Cells were differentiated for 3-4 days before collected for analysis. Media was changed on the second day.
RT-qPCR was performed on cDNA samples with a Rotor-Gene 6000 (Corbett) using SYBER green based assays (Qiagen). All samples were normalized to GAPDH and the relative expression of each gene was determined using the delta-delta CT method. The primer sequences used are as follows:
The ability for ONS to respond to the treatments of SB, LDN and TRIM was tested. QPCR was performed according to the methods described in the foregoing examples.

[1] = tested on: olfactory neurospheres (ONS); experiment: Olfactory neurosphere (ONS) neuronal differentiation, immunostaining and morphology; conditions: added to ONS differentiation media, 3-4 days
Experimental: Cells were fixed in 4% paraformaldehyde for 20 min and then blocked for 2 h at room temperature before incubated with the appropriate primary antibodies overnight at 4° C. The following primary antibodies were used: mouse β-III-tubulin (Sigma, 1:500), mouse N-cam (Dako, 1:100), mouse GFAP (Merk, 1:500), chicken Sox1 (Merk, 1:500), rabbit Nestin (Merk, 1:500), rabbit Neurofilament-Light (Merk, 1:500), rabbit Synapsin (Calbiochem, 1:500) and sheep Olfactory Marker Protein (Abcam, 1:500). Appropriate secondary antibodies were added and incubated for lh before samples were washed and mounted using Prolong Gold (Invitrogen) and analyzed using either a fluorescent microscope (Nikon) or a confocal microscope (Leica). All secondary antibodies were from Molecular Probes and diluted at 1:1000, except for anti-sheep secondary antibody, which was from Dako and diluted at 1:500.
Primary olfactory cells were dissociated into single cells and seeded onto Poly L-Lysine (Sigma) coated tissue culture dishes at 20,000 cells/cm^2 in sphering media, which consists of DMEM+1×ITS+50 μg/mL EGF+25 μg/mL FGF2. Cells were then incubated at 37° C. with 5% CO2 until neurospheres started to form. This normally takes 2-3 days. Small neurospheres (<200 μm in diameter) were manually picked under a dissecting microscope (Leica) and collected for differentiation. […]

olfactory primary cells = experiment: Olfactory primary cell culture differentiation, β-III-tubulin immunostaining; conditions: 100 μM TRIM added, in all conditions, 4-7 days

SMILES | level of inhibition of SMAD4 (SMAD4; compared to cells cultured in the absence of inhibitors) [%] | neurite morphology [1] | mRNA level / expression of SMAD4 (SMAD4; compared to cells cultured without inhibitors) | β-III-tubulin positive cells on addition of NOS inhibitor (olfactory primary cells)
Cl.c1ccc2c(-c3cnn4cc(-c5ccc(N6CCNCC6)cc5)cnc34)ccnc2c1 [LDN193189, 4-(6-(4-(piperazin-1-yl)phenyl)pyrazolo[1,5-a]pyrimidin-3-yl)quinolone hydrochloride] | 80 | short neurites | – | –
NC(=O)c1ccc(-c2nc(-c3ccc4c(c3)OCO4)c(-c3ccccn3)[nH]2)cc1 [SB431542, 4-[4-(1,3-benzodioxol-5-yl)-5-(2-pyridinyl)-1H-imidazol-2-yl]benzamide] | – | short neurites | no change | –
FC(F)(F)c1ccccc1-n1ccnc1 [TRIM, 1-(2-Trifluoromethylphenyl) Imidazole] | – | – | – | further increase in β-III-tubulin positive cells
